Reference: article PMC7946228, “Discovery of novel candidates for anti-liposarcoma therapies by medium-scale high-throughput drug screening” (PLoS ONE, 2021)
Numbered stars: 1 amine (or outer) side, 2 acyl side, 3 side chain; on linkers, the order of the positions; unused ones are H or OH. Bridge positions count the residues as written; N and C are the ends. Square brackets hold non-standard residues; d marks the D form. Peptide text beside a SMILES is read from it. I, II: the chains in the order shown. Actinocin(9to1) = Cc1c2oc3c(C)ccc(C(=O)[*:1])c3nc-2c(C(=O)[*:2])c(N)c1=O; NMeV = CN[C@H](C(=O)O)C(C)C; Sar = CNCC(=O)O

tested on: 13 liposarcoma cell lines; assay: High-throughput drug screen, ATP viability 72h; assay type: cell-based, human; conditions: five concentrations 1 nM to 10 μM, combined viability (AUC)
Experimental: 349 compounds from anti-cancer Selleck Chemical library were pre-aliquoted at five concentrations, increasing in 10-fold steps from 1 nM to 10 μM, in 384-well plates using an Echo Liquid Handler. Each plate also contained positive (benzethonium chloride, BzCl) and negative (DMSO only) controls. Additional drugs were added manually to the same plates at the same concentration range. Cells were seeded directly into the plates containing the drugs. After 72h viability was assessed through levels of ATP, with Cell Titer Glow assay (Promega, Wisconsin, United States) and luminescence quantified using a […]. Data from drug screens were analyzed with R version 3.4.0 (R_Core_Team, 2017) normalized to median positive (BzCl) and median negative (DMSO) controls using formula: (drug-BzCl)/(DMSO–BzCl), with total viability calculated as the area under the curve over all five drug concentrations, adjusted using qualitatively constrained quantile smoothing splines, R package ‘cobs’ version 1.3–3 [22]. The raw values of positive (BzCl) and median negative (DMSO) controls on each assay plate were aggregated and used to calculate z’-factors, as a measure of assay performance and data quality, with a z’-factor > 0.5 representing acceptable data. For two cases where the z’-factor was below 0.5, strictly standardized mean difference (SSMD) was additionally calculated, giving the population value (β) of SSMD -4 and -5, respectively, indicating good quality. Data visualization was done in R using ‘ComplexHeatmaps’ package version 1.20.0 [24]. The same assay was also used when assessing viability of non-tumor cells and tumor explants.
Thirteen liposarcoma cell lines representing dedifferentiated, well-differentiated, pleomorphic and unspecified subtype liposarcomas were grown in 384-well format in the presence one of the 353 compounds, each at five 10-fold increasing concentrations (from 1 nM to 10 μM) for 72h, after which their viability was scored by measuring ATP levels. The viability was normalized to positive and negative controls and was calculated as sum of viabilities obtained with all the five used concentrations. That means if, e.g., the compound was killing cells at all the tested concentrations, the viability value would be 0, and if the compound was not killing cells at any tested concentrations, the value would be […]. If the compound was reducing the viability to 50% at 100 nM, and to 0% at 1 and 10 μM, the total viability would be calculated as 2 (see scheme on the top of Fig 1A). Within the tested concentration range, the majority of the drugs had very little effect on viability regardless of the target or pathway (Figs 1A and S1). The drug screen included 28 chemotherapeutic drugs currently in clinical use in Norway for the treatment of sarcoma.

Compound	effect on viability in the drug screen
CC(=O)O[C@@]12CO[C@@H]1C[C@H](O)[C@@]1(C)C(=O)[C@H](O)C3=C(C)[C@@H](OC(=O)[C@H](O)[C@@H](NC(=O)OC(C)(C)C)c4ccccc4)C[C@@](O)([C@@H](OC(=O)c4ccccc4)[C@H]21)C3(C)C [docetaxel]	significant impact on viability
Cc1ccc(C(=O)N(CCCN)[C@@H](c2nc3cc(Cl)ccc3c(=O)n2Cc2ccccc2)C(C)C)cc1 [ispinesib]	top candidates from the screen
CC(C)C[C@H](NC(=O)[C@H](Cc1ccccc1)NC(=O)c1cnccn1)B(O)O [Bortezomib]	top candidates from the screen
CC[C@]1(O)C[C@H]2CN(CCc3c([nH]c4ccccc34)[C@@](C(=O)OC)(c3cc4c(cc3OC)N(C=O)[C@H]3[C@@](O)(C(=O)OC)[C@H](OC(C)=O)[C@]5(CC)C=CCN6CC[C@]43[C@@H]65)C2)C1 [vincristine]	significant impact on viability
Nc1ccn([C@@H]2O[C@H](CO)[C@@H](O)C2(F)F)c(=O)n1 [gemcitabine]	significant impact on viability
Cc1c2oc3c(C)ccc(C(=O)N[C@@H]4C(=O)N[C@H](C(C)C)C(=O)N5CCC[C@H]5C(=O)N(C)CC(=O)N(C)[C@@H](C(C)C)C(=O)O[C@@H]4C)c3nc-2c(C(=O)N[C@@H]2C(=O)N[C@H](C(C)C)C(=O)N3CCC[C@H]3C(=O)N(C)CC(=O)N(C)[C@@H](C(C)C)C(=O)O[C@@H]2C)c(N)c1=O [actinomycin D] (I: T[dV]P[Sar][NMeV] / II: T[dV]P[Sar][NMeV]; ester I:1-I:C, II:1-II:C; linker I:N-II:N via Actinocin(9to1))	significant impact on viability
CC(=O)O[C@H]1C(=O)[C@@]2(C)[C@H]([C@H](OC(=O)c3ccccc3)[C@]3(O)C[C@H](OC(=O)[C@H](O)[C@@H](NC(=O)c4ccccc4)c4ccccc4)C(C)=C1C3(C)C)[C@]1(OC(C)=O)CO[C@@H]1C[C@@H]2O [paclitaxel]	significant impact on viability
